Measurements: ChEMBL document CHEMBL1201862, “PubChem BioAssay data set” (2004)
The source made the active and inactive calls.

Columns and labels:
[1] = NIH3T3 cell viability loss – ATP luminescence, mouse fibroblasts, counter-screen, dose response (AID 2010); type: functional, cell-based;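 further: cells exposed to compound for about 90 hours before reading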
Vero = assay: viability of Vero cells under compound – cytotoxicity control for flavivirus capping enzyme inhibitors (AID 588742); type: functional; conditions: Chlorocebus sabaeus
SUMO-activating enzyme [2] = target: T1, SUMO-activating enzyme (Homo sapiens, UniProt Q9UBT2); assay: blockers of UBC9-mediated SUMO conjugation – biochemical, AlphaScreen, SUMOylation inhibitor project, confirmation (AID 2018); type: functional
T1 sequence (Q9UBE0 whole entry): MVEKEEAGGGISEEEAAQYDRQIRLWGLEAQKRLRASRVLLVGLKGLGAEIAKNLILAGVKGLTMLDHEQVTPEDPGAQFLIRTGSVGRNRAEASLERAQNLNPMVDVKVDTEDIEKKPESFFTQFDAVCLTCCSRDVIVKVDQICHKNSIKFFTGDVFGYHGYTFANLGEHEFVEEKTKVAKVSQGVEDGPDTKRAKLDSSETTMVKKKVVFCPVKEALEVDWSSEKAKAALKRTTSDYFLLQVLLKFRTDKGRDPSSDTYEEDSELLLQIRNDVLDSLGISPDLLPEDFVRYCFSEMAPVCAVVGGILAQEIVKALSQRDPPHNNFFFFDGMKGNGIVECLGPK
T1 sequence (Q9UBT2 whole entry): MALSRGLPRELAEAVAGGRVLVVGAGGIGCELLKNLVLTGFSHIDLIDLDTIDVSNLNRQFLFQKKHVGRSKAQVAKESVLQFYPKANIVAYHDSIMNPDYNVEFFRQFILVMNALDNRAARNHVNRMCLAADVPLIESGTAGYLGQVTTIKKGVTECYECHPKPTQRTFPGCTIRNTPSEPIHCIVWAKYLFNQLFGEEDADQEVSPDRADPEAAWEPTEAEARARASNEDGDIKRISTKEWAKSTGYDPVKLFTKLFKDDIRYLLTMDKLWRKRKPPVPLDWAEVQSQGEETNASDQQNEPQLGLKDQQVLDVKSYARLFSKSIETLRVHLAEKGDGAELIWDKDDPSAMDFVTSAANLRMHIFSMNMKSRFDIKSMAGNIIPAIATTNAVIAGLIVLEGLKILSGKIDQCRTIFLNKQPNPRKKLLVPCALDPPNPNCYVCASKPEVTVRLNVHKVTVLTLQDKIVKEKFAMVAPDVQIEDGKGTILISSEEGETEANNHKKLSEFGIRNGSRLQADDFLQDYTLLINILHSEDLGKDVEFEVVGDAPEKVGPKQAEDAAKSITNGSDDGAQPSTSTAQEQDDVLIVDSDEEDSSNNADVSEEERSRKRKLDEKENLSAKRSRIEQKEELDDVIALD

SUMO-activating enzyme [3] = target: T1, SUMO-activating enzyme; assay: blockers of SAE1/SAE2–UBC9 SUMO transfer – biochemical, HTRF, uHTS, primary screen (AID 2006); type: protein-complex assay
[4] = target: T2, Replicative DNA helicase DnaB (Mycobacterium tuberculosis, UniProt P9WMR3); assay: DnaB intein splicing inhibitors, dose response, biochemical, cell-free fluorescence (AID 449749); type: functional
T2 sequence (P9WMR3 whole entry): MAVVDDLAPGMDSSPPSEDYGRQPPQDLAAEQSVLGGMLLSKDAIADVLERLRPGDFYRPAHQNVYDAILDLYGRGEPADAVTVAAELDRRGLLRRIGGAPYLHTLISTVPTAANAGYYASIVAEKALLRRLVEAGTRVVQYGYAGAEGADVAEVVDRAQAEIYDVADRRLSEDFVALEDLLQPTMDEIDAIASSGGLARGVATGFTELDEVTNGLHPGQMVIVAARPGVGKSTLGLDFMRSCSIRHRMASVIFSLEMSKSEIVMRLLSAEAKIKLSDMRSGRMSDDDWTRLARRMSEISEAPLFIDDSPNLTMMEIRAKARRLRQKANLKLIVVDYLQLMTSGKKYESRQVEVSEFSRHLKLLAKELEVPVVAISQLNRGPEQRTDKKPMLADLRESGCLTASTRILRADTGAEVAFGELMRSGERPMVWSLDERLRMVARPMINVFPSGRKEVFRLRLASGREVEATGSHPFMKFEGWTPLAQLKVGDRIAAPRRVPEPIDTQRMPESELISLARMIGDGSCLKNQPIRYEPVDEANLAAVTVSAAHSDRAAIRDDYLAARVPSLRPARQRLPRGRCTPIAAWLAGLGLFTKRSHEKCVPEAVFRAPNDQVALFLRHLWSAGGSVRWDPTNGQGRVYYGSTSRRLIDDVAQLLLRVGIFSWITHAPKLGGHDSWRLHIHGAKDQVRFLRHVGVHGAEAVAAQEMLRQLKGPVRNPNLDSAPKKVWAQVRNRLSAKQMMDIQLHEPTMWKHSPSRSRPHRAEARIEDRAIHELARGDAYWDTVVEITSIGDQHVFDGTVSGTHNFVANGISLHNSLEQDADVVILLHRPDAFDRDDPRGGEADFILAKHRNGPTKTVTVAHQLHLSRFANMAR

Protein RecA = target: T3, Protein RecA (Mycobacterium tuberculosis, UniProt P9WHJ3); assay: Fluorescence Cell-Free Homogeneous Dose Retest to Identify Inhibitors of RecA-Intein Splicing Activity. [Related pubchem assays (depositor defined):AID2097, AID2223, AID489010, AID492950]; type: functional
T3 sequence (P9WHJ3 whole entry): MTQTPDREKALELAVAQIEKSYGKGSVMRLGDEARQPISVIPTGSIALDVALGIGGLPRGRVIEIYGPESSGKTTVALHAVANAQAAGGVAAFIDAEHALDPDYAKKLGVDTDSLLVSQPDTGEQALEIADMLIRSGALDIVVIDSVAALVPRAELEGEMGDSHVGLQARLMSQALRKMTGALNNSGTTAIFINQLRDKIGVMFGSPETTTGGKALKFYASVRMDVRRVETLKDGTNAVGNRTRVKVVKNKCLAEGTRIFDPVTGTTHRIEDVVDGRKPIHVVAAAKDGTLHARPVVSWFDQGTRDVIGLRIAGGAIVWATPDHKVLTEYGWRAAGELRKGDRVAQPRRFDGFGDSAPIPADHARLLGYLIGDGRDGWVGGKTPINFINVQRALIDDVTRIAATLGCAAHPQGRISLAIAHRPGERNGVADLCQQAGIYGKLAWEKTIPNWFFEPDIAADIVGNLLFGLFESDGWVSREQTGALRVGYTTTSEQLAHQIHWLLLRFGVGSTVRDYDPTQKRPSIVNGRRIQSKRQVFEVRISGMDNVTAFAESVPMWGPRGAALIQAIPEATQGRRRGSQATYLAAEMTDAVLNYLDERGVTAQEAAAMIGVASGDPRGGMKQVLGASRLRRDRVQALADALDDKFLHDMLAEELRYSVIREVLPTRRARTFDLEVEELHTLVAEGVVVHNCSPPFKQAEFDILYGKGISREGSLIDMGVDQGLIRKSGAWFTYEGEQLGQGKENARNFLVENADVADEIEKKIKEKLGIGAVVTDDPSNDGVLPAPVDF

[5] = Trypanosoma cruzi growth suppression in host cells – NIH3T3 host cells, beta-gal luminescence, confirmation (AID 2044); type: functional, cell-based;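 further: intracellular parasites grown in NIH/3T3 mouse fibroblasts as host cells; luminescent beta-galactosidase reporter signal from transgenic T. cruzi replicating inside host cells; inhibitors lower the luminescence signal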
Insulin-degrading enzyme [6] = target: T4, Insulin-degrading enzyme (Homo sapiens, UniProt P14735); assay: recombinant IDE activation, cell-free – biochemical, fluorescence polarization, counter-screen for IDE activator project, dose response (AID 588681)
T4 sequence (P14735 whole entry): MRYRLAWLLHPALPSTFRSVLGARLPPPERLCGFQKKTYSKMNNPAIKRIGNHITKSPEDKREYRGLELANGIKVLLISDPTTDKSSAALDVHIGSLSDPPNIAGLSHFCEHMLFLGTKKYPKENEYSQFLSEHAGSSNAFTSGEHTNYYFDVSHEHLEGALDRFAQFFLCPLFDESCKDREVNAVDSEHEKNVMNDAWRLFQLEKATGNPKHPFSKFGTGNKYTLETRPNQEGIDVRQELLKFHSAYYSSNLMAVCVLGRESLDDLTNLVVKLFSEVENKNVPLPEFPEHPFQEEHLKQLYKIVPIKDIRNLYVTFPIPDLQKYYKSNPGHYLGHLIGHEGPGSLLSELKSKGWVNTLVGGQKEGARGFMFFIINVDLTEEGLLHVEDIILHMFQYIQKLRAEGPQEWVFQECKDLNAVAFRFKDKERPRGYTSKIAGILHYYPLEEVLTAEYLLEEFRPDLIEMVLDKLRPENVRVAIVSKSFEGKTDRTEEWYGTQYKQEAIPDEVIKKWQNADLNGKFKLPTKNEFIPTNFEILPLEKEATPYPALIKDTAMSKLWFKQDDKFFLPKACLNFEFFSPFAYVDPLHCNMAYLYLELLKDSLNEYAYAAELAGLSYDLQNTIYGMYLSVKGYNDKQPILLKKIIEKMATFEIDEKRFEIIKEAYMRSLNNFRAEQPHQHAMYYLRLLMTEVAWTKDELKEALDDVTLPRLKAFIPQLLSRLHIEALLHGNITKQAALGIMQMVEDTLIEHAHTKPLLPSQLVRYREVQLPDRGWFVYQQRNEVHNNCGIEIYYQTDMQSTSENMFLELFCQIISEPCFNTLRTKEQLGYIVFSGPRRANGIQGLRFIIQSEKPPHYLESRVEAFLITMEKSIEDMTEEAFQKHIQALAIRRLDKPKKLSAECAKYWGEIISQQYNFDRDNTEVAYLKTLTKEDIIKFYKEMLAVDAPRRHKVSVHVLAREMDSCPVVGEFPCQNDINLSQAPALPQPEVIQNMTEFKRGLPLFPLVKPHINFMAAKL

[7] = reduction of Shn3 3'UTR-driven luciferase in osteoblasts – cell-based, Clone20 osteoblasts, firefly luciferase, cherry-picked, dose response (AID 624132); type: functional;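 further: firefly luciferase luminescence from reporter carrying the Shn3 3'UTR in osteoblasts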
Insulin-degrading enzyme [8] = target: T4, Insulin-degrading enzyme; assay: cellular IDE activation of Abeta substrate cleavage – fluorescence polarization, HEK cells, dose response (AID 588439); type: functional, cell-based
[9] = microbe, parasite or virus in culture; type: functional; conditions: Mycobacterium tuberculosis
cells = type: functional
[10] = Vero E6 cell cytotoxicity, dose response, cytotoxicity control for non-replicating M. tuberculosis project, secondary assay (AID 492998); type: functional, VeroE6; conditions: Vero C1008
HEK293 [11] = assay: membrane integrity loss in HEK cells – cell-based, fluorescence, cytotoxicity control for IDE activator project, dose response (AID 588440); type: functional; conditions: Homo sapiens;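 further: cytotoxicity by LDH release measuring loss of membrane integrity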
HEK293 [12] = assay: optical interference in Abeta FP readout, dose response, artefact control for IDE activator project, biochemical, fluorescence polarization (AID 588442); type: functional, cell-based; conditions: Homo sapiens
[13] = target: T5, Ubiquitin-conjugating enzyme E2 N (Homo sapiens, UniProt P61088); type: functional;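 further: Dose-response confirmation in a TR-FRET assay detecting UBC13-driven polyubiquitin chain formation, inhibition measured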
T5 sequence (P61088 whole entry): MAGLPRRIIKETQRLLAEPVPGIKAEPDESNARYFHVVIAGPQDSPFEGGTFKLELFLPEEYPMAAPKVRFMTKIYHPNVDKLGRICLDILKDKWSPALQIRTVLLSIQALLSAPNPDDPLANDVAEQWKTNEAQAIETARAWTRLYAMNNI

[14] = THP-1 cell cytotoxicity, dose response, cytotoxicity control for non-replicating M. tuberculosis project (AID 489025); type: functional
[15] = HepG2 cell cytotoxicity, dose response, cytotoxicity control for non-replicating M. tuberculosis project (AID 489018); type: functional; conditions: Mycobacterium tuberculosis
[16] = loss of viability in HepG2 cells – cell-based, CellTiter-Glo, cherry-picked, cytotoxicity control for Shn3 inhibitor project, dose response (AID 624134); type: functional
[17] = non-specific 3'UTR reporter inhibition in Clone20-Shn3RL – cell-based, Renilla luciferase, cherry-picked, counter-screen for Shn3 inhibitor project, dose response (AID 624133); type: functional

SMILES	EC50 [1]	CC50 (Vero)	IC50 (SUMO-activating enzyme [2])	IC50 (SUMO-activating enzyme [3])	AC50 [4]	EC50 (Protein RecA)	EC50 [5]	EC50 (Insulin-degrading enzyme [6])	AC50 [7]	EC50 (Insulin-degrading enzyme [8])	CC50 [9]	IC50 (cells)	CC50 [10]	IC50 (HEK293 [11])	EC50 (HEK293 [12])	IC50 [13]	CC50 [14]	CC50 [15]	AC50 [16]	AC50 [17]
CCCCCn1c(NC(=O)c2ccco2)c(S(=O)(=O)c2ccc(C)cc2)c2nc3ccccc3nc21	> 60 µM (not active)	> 40 µM (active)	2.74 µM (active)	13.1 µM (active)	> 380 µM (inactive)	> 380 µM (inconclusive)	3.27 µM (active)													
CCCCCCCNC(=O)C1(CC2CC(c3cccc(Br)c3)=NO2)CCNCC1 (stereo not given)								> 54.7 µM (inactive)	11.7 µM (active)	54.5 µM (inactive)	6.71 µM (active)	17.2 µM (active)	15.2 µM (active)	7.51 µM (active)	> 55.9 µM (inactive)	> 20 µM (inactive)	6.82 µM (active)	5.99 µM (active)	14.1 µM (active)	16.5 µM (active)
